Structures are written as SMILES. Like-named read-outs stand apart in the source and are kept apart here. A value given as a limit tells only on which side of the number the result lay.

The target of this test is T1, Tyro3 (Homo sapiens, UniProt Q06418).
T1 sequence (Q06418 41-890): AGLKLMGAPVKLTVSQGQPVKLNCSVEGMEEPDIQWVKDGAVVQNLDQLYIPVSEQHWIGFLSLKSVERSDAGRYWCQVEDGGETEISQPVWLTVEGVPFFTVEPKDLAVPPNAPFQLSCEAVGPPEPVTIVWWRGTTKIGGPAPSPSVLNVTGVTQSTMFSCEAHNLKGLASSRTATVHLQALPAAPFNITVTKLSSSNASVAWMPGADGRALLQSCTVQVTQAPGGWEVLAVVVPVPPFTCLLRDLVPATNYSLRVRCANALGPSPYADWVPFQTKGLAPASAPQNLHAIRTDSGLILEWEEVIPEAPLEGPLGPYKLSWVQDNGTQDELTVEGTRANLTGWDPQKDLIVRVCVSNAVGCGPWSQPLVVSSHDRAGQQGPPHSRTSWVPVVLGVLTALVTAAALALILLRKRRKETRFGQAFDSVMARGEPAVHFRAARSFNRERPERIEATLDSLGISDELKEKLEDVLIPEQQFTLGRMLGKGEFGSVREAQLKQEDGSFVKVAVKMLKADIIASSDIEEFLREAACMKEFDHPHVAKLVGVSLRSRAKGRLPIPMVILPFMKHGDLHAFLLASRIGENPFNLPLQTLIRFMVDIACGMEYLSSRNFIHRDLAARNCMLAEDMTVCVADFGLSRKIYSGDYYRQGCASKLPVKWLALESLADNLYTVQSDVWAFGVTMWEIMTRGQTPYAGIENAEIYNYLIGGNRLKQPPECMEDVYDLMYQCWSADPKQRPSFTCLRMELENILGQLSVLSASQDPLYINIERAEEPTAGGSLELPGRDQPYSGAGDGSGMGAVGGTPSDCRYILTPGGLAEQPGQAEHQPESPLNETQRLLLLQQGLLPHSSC
Put plainly: Tyro3 kinase inhibition IC50. The following applies: read-out: Tyro3 IC50. The test is classed as biochemical.

A word on the IC50: it is the concentration needed to halve the response being measured. As for `O[C@H]1CC[C@H](Nc2nc(Nc3ccccc3)ncc2-c2ccc(CN3CCCC3)cn2)CC1` [UNC4198A], the half-maximal inhibitory concentration (IC50) (Example 6) came out at 560 pM and the IC50 (Table 1) was under 10000 pM.
